According to PMC11650766 (ACS Infectious Diseases, 2024):

How the values were obtained:
Assay in all cases: iSPP stabilization in E. coli K12 lysate at […], LC-MS/MS
Assay type in all cases: cell-based
[1] = molecular target: RpoB (RNA polymerase β-subunit) (Escherichia coli, UniProt P0A8V2)
[2] = molecular target: T1, PBP1a (MrcA) (Escherichia coli, UniProt P02918)
T1 sequence (P02918 1-850): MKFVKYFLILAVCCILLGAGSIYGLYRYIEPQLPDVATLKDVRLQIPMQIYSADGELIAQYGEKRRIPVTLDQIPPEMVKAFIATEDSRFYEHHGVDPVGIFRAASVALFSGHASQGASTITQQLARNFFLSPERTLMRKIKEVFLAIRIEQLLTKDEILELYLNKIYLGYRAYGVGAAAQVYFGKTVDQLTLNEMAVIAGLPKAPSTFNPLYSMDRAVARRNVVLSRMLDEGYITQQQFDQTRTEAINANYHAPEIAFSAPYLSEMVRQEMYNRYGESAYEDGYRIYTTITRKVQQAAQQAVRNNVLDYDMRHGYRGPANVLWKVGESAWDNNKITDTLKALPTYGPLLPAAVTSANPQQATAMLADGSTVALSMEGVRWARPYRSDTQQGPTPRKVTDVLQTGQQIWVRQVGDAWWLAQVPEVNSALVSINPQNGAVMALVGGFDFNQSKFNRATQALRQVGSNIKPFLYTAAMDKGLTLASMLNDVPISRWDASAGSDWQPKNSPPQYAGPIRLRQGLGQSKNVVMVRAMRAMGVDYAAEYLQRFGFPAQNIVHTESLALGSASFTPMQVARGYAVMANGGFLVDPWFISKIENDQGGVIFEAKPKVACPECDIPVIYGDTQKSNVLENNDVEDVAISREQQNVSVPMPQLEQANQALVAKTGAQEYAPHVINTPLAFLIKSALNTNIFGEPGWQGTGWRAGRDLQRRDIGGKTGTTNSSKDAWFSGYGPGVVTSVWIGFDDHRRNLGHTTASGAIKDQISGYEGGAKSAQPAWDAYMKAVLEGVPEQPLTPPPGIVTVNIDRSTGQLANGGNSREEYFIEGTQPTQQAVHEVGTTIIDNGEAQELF

[3] = molecular target: PBP4 (DacB) (Escherichia coli, UniProt P24228)
Chain of PBP4 (DacB) (P24228 21-477): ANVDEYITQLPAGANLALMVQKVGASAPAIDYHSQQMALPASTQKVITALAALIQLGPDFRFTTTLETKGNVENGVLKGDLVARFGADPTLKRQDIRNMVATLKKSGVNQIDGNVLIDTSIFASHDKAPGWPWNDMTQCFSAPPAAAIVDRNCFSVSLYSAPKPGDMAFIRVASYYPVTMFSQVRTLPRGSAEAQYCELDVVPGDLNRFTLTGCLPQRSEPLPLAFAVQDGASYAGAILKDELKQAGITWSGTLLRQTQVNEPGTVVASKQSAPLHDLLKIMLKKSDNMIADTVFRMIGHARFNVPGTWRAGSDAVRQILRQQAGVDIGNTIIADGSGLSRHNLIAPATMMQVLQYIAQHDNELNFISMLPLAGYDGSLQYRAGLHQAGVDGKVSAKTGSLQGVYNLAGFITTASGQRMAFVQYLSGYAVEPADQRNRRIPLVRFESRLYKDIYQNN

Chain of RpoB (RNA polymerase β-subunit) (P0A8V2 whole entry): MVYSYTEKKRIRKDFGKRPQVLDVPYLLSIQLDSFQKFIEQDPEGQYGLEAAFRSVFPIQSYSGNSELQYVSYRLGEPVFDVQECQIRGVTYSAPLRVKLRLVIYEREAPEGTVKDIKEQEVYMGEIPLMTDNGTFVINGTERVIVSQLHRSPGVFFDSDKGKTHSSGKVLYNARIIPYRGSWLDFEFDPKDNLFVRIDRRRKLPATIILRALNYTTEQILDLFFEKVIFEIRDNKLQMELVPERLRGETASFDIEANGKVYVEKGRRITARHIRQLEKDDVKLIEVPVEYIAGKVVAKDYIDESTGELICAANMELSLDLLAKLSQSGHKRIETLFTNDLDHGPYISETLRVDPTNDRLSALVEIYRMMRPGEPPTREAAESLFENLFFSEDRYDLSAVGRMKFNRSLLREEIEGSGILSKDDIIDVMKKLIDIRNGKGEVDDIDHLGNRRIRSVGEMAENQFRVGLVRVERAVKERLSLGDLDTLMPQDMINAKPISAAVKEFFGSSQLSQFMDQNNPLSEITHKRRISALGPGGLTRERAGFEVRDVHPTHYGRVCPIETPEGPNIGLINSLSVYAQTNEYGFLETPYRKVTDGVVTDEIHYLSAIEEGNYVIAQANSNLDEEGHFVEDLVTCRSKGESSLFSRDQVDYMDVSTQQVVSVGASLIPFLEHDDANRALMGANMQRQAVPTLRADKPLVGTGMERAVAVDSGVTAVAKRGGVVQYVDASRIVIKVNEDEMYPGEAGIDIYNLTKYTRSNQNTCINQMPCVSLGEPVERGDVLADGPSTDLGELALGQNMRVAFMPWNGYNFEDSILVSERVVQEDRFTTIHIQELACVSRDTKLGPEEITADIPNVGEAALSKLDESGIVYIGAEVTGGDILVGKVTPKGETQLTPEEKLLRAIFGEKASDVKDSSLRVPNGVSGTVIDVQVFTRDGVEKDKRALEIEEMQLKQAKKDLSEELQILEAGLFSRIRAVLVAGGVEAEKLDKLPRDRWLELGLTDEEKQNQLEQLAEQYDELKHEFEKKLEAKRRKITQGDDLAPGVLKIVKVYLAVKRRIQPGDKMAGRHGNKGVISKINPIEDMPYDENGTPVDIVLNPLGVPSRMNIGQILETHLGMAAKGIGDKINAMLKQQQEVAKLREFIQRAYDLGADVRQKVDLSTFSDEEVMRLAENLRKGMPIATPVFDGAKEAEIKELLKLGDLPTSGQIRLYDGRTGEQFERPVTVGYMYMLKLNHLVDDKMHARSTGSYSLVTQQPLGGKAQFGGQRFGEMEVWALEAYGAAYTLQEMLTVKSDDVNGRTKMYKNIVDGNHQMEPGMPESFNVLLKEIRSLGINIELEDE
Chain of RpoB (RNA polymerase β-subunit) (P0A8T7 whole entry partner): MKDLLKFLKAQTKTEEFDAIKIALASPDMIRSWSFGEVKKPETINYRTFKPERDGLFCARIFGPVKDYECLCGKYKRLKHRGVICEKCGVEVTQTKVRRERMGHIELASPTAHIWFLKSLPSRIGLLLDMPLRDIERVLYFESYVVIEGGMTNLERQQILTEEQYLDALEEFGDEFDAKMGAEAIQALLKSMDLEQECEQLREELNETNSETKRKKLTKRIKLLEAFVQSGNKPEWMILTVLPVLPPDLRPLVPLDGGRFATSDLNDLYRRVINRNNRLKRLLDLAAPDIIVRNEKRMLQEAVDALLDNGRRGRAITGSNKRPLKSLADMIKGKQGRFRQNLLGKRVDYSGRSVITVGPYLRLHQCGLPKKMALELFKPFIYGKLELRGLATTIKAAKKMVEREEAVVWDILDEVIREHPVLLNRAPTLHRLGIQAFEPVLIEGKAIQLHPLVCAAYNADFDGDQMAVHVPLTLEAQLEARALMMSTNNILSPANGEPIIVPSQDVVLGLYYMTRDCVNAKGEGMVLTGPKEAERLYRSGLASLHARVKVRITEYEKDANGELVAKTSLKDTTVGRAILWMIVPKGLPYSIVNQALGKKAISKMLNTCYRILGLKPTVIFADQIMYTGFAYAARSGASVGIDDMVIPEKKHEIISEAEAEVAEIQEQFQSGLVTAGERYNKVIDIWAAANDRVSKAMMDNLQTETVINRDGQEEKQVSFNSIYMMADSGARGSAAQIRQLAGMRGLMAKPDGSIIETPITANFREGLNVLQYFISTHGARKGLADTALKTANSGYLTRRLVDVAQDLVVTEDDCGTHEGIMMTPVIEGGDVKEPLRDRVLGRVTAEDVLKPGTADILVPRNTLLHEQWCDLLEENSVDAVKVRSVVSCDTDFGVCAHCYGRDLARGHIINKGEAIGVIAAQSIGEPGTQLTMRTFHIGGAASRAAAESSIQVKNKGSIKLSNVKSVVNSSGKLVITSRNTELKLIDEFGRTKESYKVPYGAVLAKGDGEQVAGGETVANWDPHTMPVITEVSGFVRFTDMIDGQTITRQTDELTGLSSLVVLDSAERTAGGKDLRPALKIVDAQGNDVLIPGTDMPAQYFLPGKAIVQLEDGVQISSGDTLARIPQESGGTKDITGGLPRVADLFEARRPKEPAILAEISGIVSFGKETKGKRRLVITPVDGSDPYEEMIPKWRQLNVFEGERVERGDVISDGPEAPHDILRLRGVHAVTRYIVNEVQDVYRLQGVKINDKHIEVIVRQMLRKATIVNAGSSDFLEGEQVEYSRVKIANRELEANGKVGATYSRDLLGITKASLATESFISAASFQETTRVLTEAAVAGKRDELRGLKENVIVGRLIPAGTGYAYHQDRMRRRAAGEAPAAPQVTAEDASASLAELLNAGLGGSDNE
Chain of RpoB (RNA polymerase β-subunit) (P0A7Z4 whole entry partner): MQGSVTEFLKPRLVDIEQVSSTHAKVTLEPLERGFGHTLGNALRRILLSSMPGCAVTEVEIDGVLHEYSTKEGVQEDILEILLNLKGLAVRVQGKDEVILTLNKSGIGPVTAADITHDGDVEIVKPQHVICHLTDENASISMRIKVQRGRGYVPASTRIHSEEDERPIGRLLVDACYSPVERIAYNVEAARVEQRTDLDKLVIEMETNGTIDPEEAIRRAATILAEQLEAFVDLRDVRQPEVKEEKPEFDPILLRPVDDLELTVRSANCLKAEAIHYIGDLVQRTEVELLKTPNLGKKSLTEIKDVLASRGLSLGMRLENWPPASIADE

SMILES	iSPP stabilization in E. coli K12 lysate at 10 μM, LC-MS/MS [1]	iSPP stabilization in E. coli K12 lysate at 10 μM, LC-MS/MS [2]	iSPP stabilization in E. coli K12 lysate at 10 μM, LC-MS/MS [3]
CO[C@H]1/C=C/O[C@@]2(C)Oc3c(C)c(O)c4c(O)c(c(/C=N/N5CCN(C)CC5)c(O)c4c3C2=O)NC(=O)/C(C)=C\C=C\[C@H](C)[C@H](O)[C@@H](C)[C@@H](O)[C@@H](C)[C@H](OC(C)=O)[C@@H]1C [rifampicin]	for rifampicin, we observed (Figure 2A) the stabilization of other subunits within the RNAP complex in addition to the primary target RpoB	–	–
CC1(C)S[C@@H]2[C@H](NC(=O)[C@H](N)c3ccccc3)C(=O)N2[C@H]1C(=O)O [ampicillin]	–	Ampicillin led to a significant stabilization of PBP1a (MrcA) and PBP4 (DacB), the two top hits	Ampicillin led to a significant stabilization of PBP1a (MrcA) and PBP4 (DacB), the two top hits
